Reference: PubChem BioAssay AID1259411 (Chemical Carcinogenesis Research Information System (CCRIS), 2018)
The source made the active and inactive calls. How the calls were made is not given here.

Test system: rodent carcinogenicity bioassays, tumor incidence
Experiment: CCRIS carcinogenicity studies
Procedure, shortened: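 Archive of carcinogenicity, mutagenicity, tumor promotion and tumor inhibition results drawn from journals, NCI reports and other sources, expert-reviewed; covers 1985-2011 and is no longer updated.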

C=CC(O)c1ccc2c(c1)OCO2 (stereo not given)
carcinogen call (Species: MOUSE, Strain/Sex: CD-1/FEMALE, Route: ORAL, Dose: 0.083% IN DIET FROM D 1 TO 10, 0.17% FROM D 11 TO 20, 0.55% THEREAFTER TO 12 MO, Tumor Site: Type of Lesion: LIVER: HEPATOCELLULAR CARCINOMA): active; positive
carcinogen call (Species: MOUSE, Strain/Sex: CD-1/MALE, Route: SUBCUTANEOUS, Dose: TOTAL DOSE: 3.18 UMOL IN TRIOCTANOIN OVER 22 D, Tumor Site: Type of Lesion: LIVER: HEPATOCELLULAR CARCINOMA): active; positive
carcinogen call (Species: RAT, Strain/Sex: STRAIN-CD/MALE, Route: ORAL, Dose: 0.25% IN DIET FOR 17 MO, 0.55% IN DIET FOR 10 MO, Tumor Site: Type of Lesion: LIVER: HEPATOCELLULAR CARCINOMA): active; positive

NC(=O)c1cnccn1
carcinogen call (Species: MOUSE, Strain/Sex: B6C3F1/MALE, Route: ORAL, Dose: 0, 5000, 10000 PPM IN DIET, Dose: 0, 5000, 10000 PPM IN DIET): inactive; negative
carcinogen call (Species: RAT, Strain/Sex: F344/FEMALE, Route: ORAL, Dose: 0, 5000, 10000 PPM IN DIET, Dose: 0, 5000, 10000 PPM IN DIET): inactive; negative
carcinogen call (Species: RAT, Strain/Sex: F344/MALE, Route: ORAL, Dose: 0, 5000, 10000 PPM IN DIET, Dose: 0, 5000, 10000 PPM IN DIET): inactive; negative

NCl
carcinogen call (Species: MOUSE, Strain/Sex: B6C3F1/FEMALE, Route: ORAL, Dose: 0, 50, 100, 200 PPM IN BUFFERED, CHARCOAL-FILTERED, DEIONIZED WATER FOR 104 WK (STUDY DURATION: 2 YR), Dose: 0, 50, 100, 200 PPM IN BUFFERED, CHARCOAL-FILTERED, DEIONIZED WATER FOR 104 WK (STUDY DURATION: 2 YR)): inactive; negative
carcinogen call (Species: MOUSE, Strain/Sex: B6C3F1/MALE, Route: ORAL, Dose: 0, 50, 100, 200 PPM IN BUFFERED, CHARCOAL-FILTERED, DEIONIZED WATER FOR 104 WK (STUDY DURATION: 2 YR), Dose: 0, 50, 100, 200 PPM IN BUFFERED, CHARCOAL-FILTERED, DEIONIZED WATER FOR 104 WK (STUDY DURATION: 2 YR)): inactive; negative
carcinogen call (Species: RAT, Strain/Sex: F344/MALE, Route: ORAL, Dose: 0, 50, 100, 200 PPM IN BUFFERED, CHARCOAL-FILTERED, DEIONIZED WATER FOR 103 WK (STUDY DURATION: 2 YR), Dose: 0, 50, 100, 200 PPM IN BUFFERED, CHARCOAL-FILTERED, DEIONIZED WATER FOR 103 WK (STUDY DURATION: 2 YR)): inactive; negative

O=[N+]([O-])c1ccc2c3c(cccc13)-c1ccccc1-2
carcinogen call (Species: MOUSE, Strain/Sex: B6C3F1/MALE, Route: INTRAPERITONEAL, Dose: 0, 400 NMOL IN 35 µL DMSO ON DAYS 1 (1/7 TOTAL DOSE), 8 (2/7 TOTAL DOSE), AND 15 (4/7 TOTAL DOSE) AFTER BIRTH (STUDY DUR): inactive; negative
carcinogen call (Species: MOUSE, Strain/Sex: ICR/FEMALE, Route: INTRAPERITONEAL, Dose: 0, 63 UG TOTAL DOSE (9 UG/5 µL, 18 UG/10 µL, 36 UG/20 µL DMSO ON DAYS 1, 8 AND 15), 315 UG TOTAL DOSE (45 UG/5 µL, 90 UG, Dose: 0, 63 UG TOTAL DOSE (9 UG/5 µL, 18 UG/10 µL, 36 UG/20 µL DMSO ON DAYS 1, 8 AND 15), 315 UG TOTAL DOSE (45 UG/5 µL, 90 UG, Tumor Site: Type of Lesion: LUNG: ADENOMA): active; positive
carcinogen call (Species: MOUSE, Strain/Sex: ICR/MALE, Route: INTRAPERITONEAL, Dose: 0, 63 UG TOTAL DOSE (9 UG/5 µL, 18 UG/10 µL, 36 UG/20 µL DMSO ON DAYS 1, 8 AND 15), 315 UG TOTAL DOSE (45 UG/5 µL, 90 UG, Dose: 0, 63 UG TOTAL DOSE (9 UG/5 µL, 18 UG/10 µL, 36 UG/20 µL DMSO ON DAYS 1, 8 AND 15), 315 UG TOTAL DOSE (45 UG/5 µL, 90 UG, Tumor Site: Type of Lesion: LUNG: ADENOMA): active; positive
carcinogen call (Species: RAT, Strain/Sex: F344/DUCRJ FISCHER/MALE, Route: SUBCUTANEOUS, Dose: 2 MG TWICE WEEKLY FOR A TOTAL OF 15 INJECTIONS (STUDY DURATION: 52 WK), Tumor Site: Type of Lesion: INTEGUMENTARY SYSTEM: FIBROUS HISTIOCYTOMAS): active; positive
carcinogen call (Species: RAT, Strain/Sex: F344/MALE, Route: LUNG IMPLANT, Dose: 0, 1000 UG SUSPENDED IN BEESWAX/TRICAPRYLIN INTO LOWER LEFT LUNG ONCE (STUDY DURATION: 100 WK)): inactive; negative
carcinogen call (Species: RAT, Strain/Sex: F344/MALE, Route: PULMONARY IMPLANT, Dose: 0, 1000 UG IN 50 µL BEESWAX/TRICAPRYLIN IMPLANTED FOR UP TO 100 WK (STUDY DURATION: 100 WK)): inactive; negative
